Data published in ChEMBL document CHEMBL5120813, “Polysubstituted Cyclopentene Benzamides and Dianthramide Alkaloids from Delphinium anthriscifolium Hance” (2022).

Test system: RAW264.7
Test: Antiinflammatory activity in mouse RAW264.7 assessed as inhibition of LPS-induced NO production preincubated for 30 mins followed by LPS stimulation measured after 24 hrs by Griess reagent based assay relative to control
Assay type: functional
Set-up: concentration or dose not given beside the values
Conditions: 0.5 h

Structure (SMILES)	inhibition (INH) [%]
COC(=O)c1cc(O)c(O)cc1NC(=O)c1ccccc1O	57.6
COC(=O)c1cc(O)c(O)cc1NC(=O)c1cc(O)ccc1OC	78.8
COC(=O)c1cc(O)ccc1NC(=O)c1cccc(O)c1OC	61.2
COC(=O)c1cc(O)c(O)cc1NC(=O)c1cc(O)ccc1O	40.3
O=c1c(O)c(-c2ccc(O)c(O)c2)oc2cc(O)cc(O)c12 [QUERCETIN]	48.6
COC(=O)c1c(NC(=O)c2cccc(O)c2OC)ccc(O)c1OC	43
